The results in this text go back to ChEMBL document CHEMBL1146153, “A metabolically stable tight-binding transition-state inhibitor of glyoxalase-I” (Bioorg Med Chem Lett, 2006).

Structures are written as SMILES.

The nature of series [1]: Stability against equine kidney gamma-glutamyltranspeptidase mediated breakdown at pH 8.4 after 15 mins. It is filed as ADME, tissue-based. As to conditions: pH 8.4, 0.25 h; call rule not given here.
A further series deals with T1, Glyoxalase I (Saccharomyces cerevisiae S288c, UniProt P50107).
T1 sequence (P50107 whole entry): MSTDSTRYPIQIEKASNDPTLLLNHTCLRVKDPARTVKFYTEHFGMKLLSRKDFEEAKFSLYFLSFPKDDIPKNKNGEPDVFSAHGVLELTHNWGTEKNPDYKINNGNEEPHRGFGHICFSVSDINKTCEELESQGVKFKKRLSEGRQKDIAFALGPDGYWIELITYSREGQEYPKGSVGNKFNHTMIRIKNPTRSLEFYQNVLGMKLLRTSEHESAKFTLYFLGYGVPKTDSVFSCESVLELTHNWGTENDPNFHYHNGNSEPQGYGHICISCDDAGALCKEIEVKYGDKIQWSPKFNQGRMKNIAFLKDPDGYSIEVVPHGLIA
Description: Inhibition of yeast glyoxalase1.

Series [2] is described as follows: Stability against equine kidney gamma-glutamyltranspeptidase mediated breakdown at pH 8.4 after 15 hrs. In kind it is ADME. As to conditions: pH 8.4, 15 h.

For the molecule `N[C@@H](CCC(=O)N[C@@H](CSC(=O)N(O)c1ccc(Br)cc1)C(=O)NCC(=O)O)C(=O)O`, in series [1], the Activity result is given as “Not Active”.
Regarding `N[C@@H](CCC(=O)N[C@@H](CSCc1ccc(Br)cc1)C(=O)NCC(=O)O)C(=O)O`, the Activity entry in series [1] was “Not Active”.
For the molecule `N[C@@H](CNC(=O)N[C@@H](CSC(=O)N(O)c1ccc(Br)cc1)C(=O)NCC(=O)O)C(=O)O`, the Ki – broadly, a dissociation constant, usually derived from enzyme kinetics or from competition with a known ligand – on Glyoxalase I is 2190 nM. Further, in series [2], the Stability entry is listed as “Stable”.
